Test results as given in patent publication US20250144067A1, “PERSONALIZED STARVATION THERAPY FOR CANCER” (Faeth Therapeutics, Inc., priority 2021, published 2025).
Structures can show the parent of a compound that is named as a salt. Where two headings read alike, the source gives them in different places.

Columns and labels:
[1] = test system: NCI-H292 lung cancer cells; assay: FDA drug screening, complete media vs cholesterol-free media without statin (TABLE 1); assay type: cell-based, human
[2] = test system: NCI-H292 lung cancer cells; assay: FDA drug screening, complete media vs cholesterol-free media with simvastatin (TABLE 2); assay type: cell-based, human
[3] = NCI-H292 cells, cholesterol-free media without statin
[4] = complete vs cholesterol-free media, greater than 0 enhanced anti-cancer activity, about 0 neutral, below 0 antagonists
[5] = NCI-H292 cells, FDA drug library screen, cholesterol-free media with simvastatin 0.04 μM
[6] = NCI-H292 cells, FDA drug library screen, complete media
[7] = Complete minus Cholesterol-free, >0 enhanced anti-cancer activity, about 0 neutral, <0 antagonist
[8] = NCI-H292 cells, FDA library drug in cholesterol-free media with simvastatin 0.04 μM
[9] = NCI-H292 cells, FDA library drug in complete media
[10] = complete media vs cholesterol-free media + simvastatin (0.04 μM), >0 enhanced anti-cancer activity, about 0 neutral, <0 antagonist
[11] = NCI-H292 cells, cholesterol-free media without statin, FDA drug library screen
[12] = complete vs cholesterol-free media, >0 enhanced anti-cancer activity, about 0 neutral, <0 antagonist
[13] = NCI-H292 cells, drug in cholesterol-free media with simvastatin 0.04 μM
[14] = NCI-H292 cells, drug in complete media
[15] = NCI-H292 cells, cholesterol-free media with simvastatin 0.04 μM, FDA drug library screen (TABLE 2)
[16] = NCI-H292 cells, complete media, FDA drug library screen (TABLE 2)
[17] = complete media minus cholesterol-free media + simvastatin (0.04 μM), >0 enhanced anti-cancer activity, about 0 neutral, <0 antagonist
[18] = Complete minus Cholesterol-free, greater than 0 enhanced anti-cancer activity, about 0 neutral, below 0 antagonists
[19] = NCI-H292 cells in cholesterol-free media without statin
[20] = NCI-H292 cells in complete media
[21] = NCI-H292 cells, FDA drug library screen, cholesterol-free media without statin

Q: O=c1[nH]c2ccccc2n1C1CCN(CCCC(c2ccc(F)cc2)c2ccc(F)cc2)CC1 [Pimozide] was tested. Which Cholesterol-free [1, 3] did it give?
A: 1.1

Q: And the Complete ([1]; NCI-H292 cells, complete media)?
A: 0.6361

Q: What about the Difference [1, 4] of the same molecule?
A: −0.46

Q: And the “Cholesterol-free media + simvastatin (0.04 μM)” value [2, 5]?
A: 0.8031

Q: What about the “Complete Media” value [2, 6] of the same molecule?
A: 0.9681

Q: And the Difference ([2]; complete media minus cholesterol-free media + simvastatin, >0 enhanced anti-cancer activity, about 0 neutral, <0 antagonist)?
A: 0.16

Q: How did the Difference [1, 7] turn out when CC(N/C(=N\C#N)Nc1ccncc1)C(C)(C)C (stereo not shown) [Pinacidil monohydrate] was run?
A: −0.26

Q: And the Cholesterol-free [1, 3]?
A: 1.093

Q: And the Complete ([1]; NCI-H292 cells, complete media)?
A: 0.8337

Q: And the “Cholesterol-free media + simvastatin (0.04 μM)” value [2, 8]?
A: 1.085

Q: And the “Complete Media” value [2, 9]?
A: 0.8064

Q: And the Difference [2, 10]?
A: −0.28

Q: Which results are given for CC(C)NCC(O)COc1cccc2[nH]ccc12 (stereo not shown) [Pindolol]?
A: Cholesterol-free [1, 11]: 0.8852; Complete ([1]; NCI-H292 cells, complete media, FDA drug library screen): 0.973; Difference [1, 12]: 0.09; Cholesterol-free media + simvastatin (0.04 μM) [2, 13]: 1.032; Complete Media [2, 14]: 0.7777; Difference [2, 10]: −0.25

Q: What does the source list for CCc1ccc(CCOc2ccc(CC3SC(=O)NC3=O)cc2)nc1 (stereo not shown) [Pioglitazone (hydrochloride)]?
A: Difference [1, 7]: −0.30; Cholesterol-free [1, 3]: 1.265; Complete ([1]; NCI-H292 cells, complete media): 0.9669; Cholesterol-free media + simvastatin (0.04 μM) [2, 13]: 1.247; Complete Media [2, 14]: 1.002; Difference [2, 10]: −0.25

Q: For CCc1ccc(CCOc2ccc(CC3SC(=O)NC3=O)cc2)nc1 (stereo not shown) [Pioglitazone], which Cholesterol-free [1, 11] is on record?
A: 0.8939

Q: And the Difference [1, 12]?
A: 0.27

Q: And the “Cholesterol-free media + simvastatin (0.04 μM)” value [2, 8]?
A: 2.095

Q: What about the “Complete Media” value [2, 9] of the same molecule?
A: 1.521

Q: What about the Difference [2, 10] of the same molecule?
A: −0.57

Q: Which Cholesterol-free [1, 3] does the source give for CCn1cc(C(=O)O)c(=O)c2cnc(N3CCNCC3)nc21 [Pipemidic acid] here?
A: 1.181

Q: And the Complete ([1]; NCI-H292 cells, complete media)?
A: 0.8267

Q: What about the Difference [1, 4] of the same molecule?
A: −0.35

Q: What about the “Cholesterol-free media + simvastatin (0.04 μM)” value [2, 15] of the same molecule?
A: 1.008

Q: And the “Complete Media” value [2, 16]?
A: 0.9896

Q: And the Difference [2, 17]?
A: −0.02

Q: Which results are given for CC(=O)c1ccc2c(c1)N(CCCN1CCC(CCO)CC1)c1ccccc1S2 [Piperacetazine]?
A: Difference [1, 18]: −0.82; Cholesterol-free [1, 19]: 1.769; Complete [1, 20]: 0.9455; Cholesterol-free media + simvastatin (0.04 μM) [2, 5]: 1.088; Complete Media [2, 6]: 0.9352; Difference [2, 10]: −0.15

Q: For CCN1CCN(C(=O)N[C@@H](C(=O)N[C@@H]2C(=O)N3[C@@H]2SC(C)(C)[C@@H]3C(=O)[O-])c2ccccc2)C(=O)C1=O.[Na+] [Piperacillin (sodium)], which Difference ([1]; Complete minus Cholesterol-free, greater than 0 enhanced anti-cancer activity, about 0 neutral, below 0 antagonist) is on record?
A: −0.14

Q: What about the Cholesterol-free [1, 21] of the same molecule?
A: 1.282

Q: What about the Complete [1, 6] of the same molecule?
A: 1.138

Q: What about the “Cholesterol-free media + simvastatin (0.04 μM)” value [2, 5] of the same molecule?
A: 2.325

Q: What about the Difference [2, 17] of the same molecule?
A: −1.15

Q: With CCN1CCCC(OC(=O)C(c2ccccc2)c2ccccc2)C1 (stereo not shown) [Piperidolate (hydrochloride)] as the molecule, how does the Cholesterol-free ([1]; (hydrochloride)) read?
A: 0.554

Q: And the Complete ([1]; (hydrochloride))?
A: 1.098

Q: What about the Difference ([1]; (hydrochloride)) of the same molecule?
A: 0.54

Q: And the “Cholesterol-free media + simvastatin (0.04 μM)” value ([2]; (hydrochloride))?
A: 0.5751

Q: What about the “Complete Media” value ([2]; (hydrochloride)) of the same molecule?
A: 0.901

Q: And the Difference ([2]; (hydrochloride))?
A: 0.33

Q: Which results are given for CCN1CCCC(OC(=O)C(c2ccccc2)c2ccccc2)C1 (stereo not shown) [Piperidolate]?
A: Cholesterol-free [1]: 1.19; Complete [1]: 0.6819; Difference [1]: −0.51; Cholesterol-free media + simvastatin (0.04 μM) [2]: 0.8957; Complete Media [2]: 1.487; Difference [2]: 0.59

Q: What does the source list for CCCCOCCOCCOCc1cc2c(cc1CCC)OCO2 [Piperonyl butoxide]?
A: Difference [1, 7]: −0.29; Cholesterol-free [1, 3]: 1.491; Complete ([1]; NCI-H292 cells, complete media): 1.202; Cholesterol-free media + simvastatin (0.04 μM) [2, 15]: 1.206; Complete Media [2, 16]: 1.18; Difference [2, 17]: −0.03

Q: Which results are given for O=C(CCBr)N1CCN(C(=O)CCBr)CC1 [Pipobroman]?
A: Difference [1, 7]: −0.30; Cholesterol-free [1, 3]: 1.38; Complete ([1]; NCI-H292 cells, complete media): 1.078; Cholesterol-free media + simvastatin (0.04 μM) [2, 8]: 1.384; Complete Media [2, 9]: 1.051; Difference [2, 10]: −0.33

Q: How did the Difference [1, 18] turn out when NC(=O)CN1CCCC1=O [Piracetam] was run?
A: −0.50

Q: And the Cholesterol-free [1, 19]?
A: 1.403

Q: And the Complete [1, 20]?
A: 0.9062

Q: What about the “Cholesterol-free media + simvastatin (0.04 μM)” value [2, 5] of the same molecule?
A: 1.178

Q: What about the “Complete Media” value [2, 6] of the same molecule?
A: 1.066

Q: What about the Difference [2, 10] of the same molecule?
A: −0.11

Q: Which Difference ([1]; Complete minus Cholesterol-free, […]) does the source give for COc1cccc2c1C(=O)c1c(O)c3c(c(O)c1C2=O)C[C@@](O)(C(=O)CO)C[C@@H]3O[C@H]1C[C@H](N)[C@H](O[C@@H]2CCCCO2)[C@H](C)O1 [Pirarubicin (Hydrochloride)] here?
A: −0.09

Q: And the Cholesterol-free [1, 21]?
A: 0.6484

Q: What about the Complete [1, 6] of the same molecule?
A: 0.5605

Q: What about the “Cholesterol-free media + simvastatin (0.04 μM)” value [2, 15] of the same molecule?
A: 0.5554

Q: And the “Complete Media” value [2, 16]?
A: 0.5244

Q: What about the Difference ([2]; complete media minus cholesterol-free media + simvastatin (0.04 μM), […]) of the same molecule?
A: −0.03
